Data: the NIST ThermoML archive (doi:10.1016/j.tca.2004.11.013)

Columns and labels:
[1] = for viscosity: 298 K, moving piston; for viscosity / thermal conductivity / mass density: 101.33 kPa, Liquid; for thermal conductivity: hot wire; for mass density: 333.1 K, Vibrating tube method; for Normal melting temperature: Crystal
[2] = molar heat capacity at constant pressure; conditions: 101.33 kPa, Liquid, Small sample (50 mg) DSC
[3] = Molar enthalpy of transition or fusion; conditions: Crystal; DSC

CCC[n+]1ccn(C)c1C.O=S(=O)([N-]S(=O)(=O)C(F)(F)F)C(F)(F)F
Conditions	Molar enthalpy of transition or fusion [kcal/mol]	mass density [kg/m3]	viscosity [mPa·s]
[1]	–	1420.5	90.05
[3]	4.71	–	–

Conditions	Normal melting temperature [°C]	molar heat capacity at constant pressure [J/K/mol]	thermal conductivity [W/m/K]
[1], 300 K	–	–	0.13
[1], 310 K	–	–	0.13
[1], 320 K	–	–	0.129
[1], 330 K	–	–	0.129
[1], 340 K	–	–	0.128
[1], 350 K	–	–	0.128
[1], 360 K	–	–	0.127
[1], 370 K	–	–	0.127
[1], 380 K	–	–	0.126
[1], 390 K	–	–	0.126
[1], DTA	11.29	–	–
[2], 323.15 K	–	473.46	–
[2], 348.15 K	–	487.72	–
[2], 373.15 K	–	501.98	–
[2], 398.15 K	–	515.4	–
[2], 423.15 K	–	528.4	–
[2], 448.15 K	–	540.98	–
[2], 473.15 K	–	553.14	–
[2], 498.15 K	–	564.47	–
[2], 523.15 K	–	575.79	–
[2], 548.15 K	–	586.69	–
[2], 573.15 K	–	597.18	–
[2], 598.15 K	–	607.24	–
[2], 623.15 K	–	616.89	–
[2], 663.15 K	–	631.15	–

CCCCn1cc[n+](C)c1.F[B-](F)(F)F [1-butyl-3-methylimidazolium tetrafluoroborate]
[1]
Conditions	mass density [kg/m3]	viscosity [mPa·s]
–	1174.7	119.78

Conditions	molar heat capacity at constant pressure [J/K/mol]	thermal conductivity [W/m/K]
[1], 300 K	–	0.186
[1], 310 K	–	0.185
[1], 320 K	–	0.184
[1], 330 K	–	0.184
[1], 340 K	–	0.183
[1], 350 K	–	0.183
[1], 360 K	–	0.182
[1], 370 K	–	0.181
[1], 380 K	–	0.181
[1], 390 K	–	0.18
[2], 223.15 K	268.74	–
[2], 248.15 K	289.54	–
[2], 273.15 K	308.75	–
[2], 298.15 K	326.15	–
[2], 323.15 K	341.75	–
[2], 348.15 K	355.76	–
[2], 373.15 K	367.74	–
[2], 398.15 K	378.36	–
[2], 423.15 K	386.95	–
[2], 448.15 K	393.96	–
[2], 473.15 K	399.16	–
[2], 498.15 K	402.77	–
[2], 523.15 K	404.35	–
[2], 548.15 K	404.35	–
[2], 573.15 K	402.77	–

Conditions	Glass transition temperature [°C]
[1], Glass, DTA	-87.38

CCn1cc[n+](C)c1.F[B-](F)(F)F [1-ethyl-3-methylimidazolium tetrafluoroborate]
Conditions	Molar enthalpy of transition or fusion [kcal/mol]	mass density [kg/m3]	viscosity [mPa·s]
[1]	–	1252.6	36.07
[3]	2.28	–	–

Conditions	Normal melting temperature [°C]	molar heat capacity at constant pressure [J/K/mol]	thermal conductivity [W/m/K]
[1], 300 K	–	–	0.199
[1], 310 K	–	–	0.197
[1], 320 K	–	–	0.196
[1], 330 K	–	–	0.195
[1], 340 K	–	–	0.194
[1], 350 K	–	–	0.193
[1], 360 K	–	–	0.191
[1], 370 K	–	–	0.19
[1], 380 K	–	–	0.189
[1], 390 K	–	–	0.188
[1], DTA	14.42	–	–
[2], 273.15 K	–	244.49	–
[2], 293.15 K	–	250.04	–
[2], 313.15 K	–	254	–
[2], 333.15 K	–	256.77	–
[2], 353.15 K	–	258.15	–
[2], 373.15 K	–	257.95	–
[2], 393.15 K	–	256.57	–
[2], 403.15 K	–	255.18	–
